Data on four compounds can be found in patent publication US11117875B2, “Crystalline forms, preparation methods and pharmaceutical compositions of ozanimod” (Hangzhou SoliPharma Co., Ltd., priority 2016, dated 2021).

Common to all, as to format: physicochemical
Data set [1] can be described thus: Form stability in water (stirred in water). Here is the method:
The form stability in water of the known ozanimod of Preparation Example 1 and ozanimod Form 2 of Example 10 were compared. The procedures are detailed as follows: took about 20 mg of the above two samples respectively, stirred in water, and studied the form stability.

The nature of data set [2]: Storage at room temperature in desiccators with relative humidity ranging from 10% to 90%. The note with it: relative humidity 10% to 90%.
Data set [3] in a line: Form stability test at 50° C. The note with it: for Crystalline form, storage time 0 day / Form stability after having been placed at 50° C. for 1 day: 50° C.; for Crystalline form, storage time 0 day: 0 day (start); for Crystalline form, storage time 5 days: placed at 50° C. Here is the method: The known ozanimod solid of Preparation Example 1 and ozanimod Form 1 of Example 1 were tested in form stability test. The procedures are detailed as follows: placed about 20 mg of the above two samples respectively at 50° C., and studied their form stability.

Data set [4] is described as follows: Form stability under 97% relative humidity. The note with it: for Crystalline form, storage time 5 days: 97% RH environment; for Crystalline form, storage time 0 day: 0 day (start). Here is the method:
The known ozanimod of Preparation Example 1 and ozanimod Form 3 of Example 19 were compared in their form stability under 97% relative humidity. The procedures are detailed as follows: placed about 20 mg of the above two samples respectively at 97% RH environment, and studied their crystalline form stability.

Setting [5] is: listed as known amorphous form of ozanimod.

Read-outs that look alike come from different tables or passages of the source.

As to `CC(C)Oc1ccc(-c2nc(-c3cccc4c3CC[C@@H]4NCCO)no2)cc1C#N` [Ozanimod Form 2, 5-[3-[(1S)-2,3-dihydro-1-(2-hydroxyethylamino)-1H-inden-4-yl]-1,2,4-oxadiazol-5-yl]-2-isopropoxybenzonitrile], the entries for the “Crystalline form after stirred in water for 3 days” value in data set [1], in data set [1] (listed as Form 2) and in data set [1] (listed as ozanimod Form 2) were “Remained Form 2”, “remained unchanged” and “remained unchanged”, respectively. In data set [2], the “Appearance, XRPD and melting point after 4 months storage” value was “remained unchanged”.
With `CC(C)Oc1ccc(-c2nc(-c3cccc4c3CC[C@@H]4NCCO)no2)cc1C#N` [Ozanimod Form 1, 5-[3-[(1S)-2,3-dihydro-1-(2-hydroxyethylamino)-1H-inden-4-yl]-1,2,4-oxadiazol-5-yl]-2-isopropoxybenzonitrile], in data set [3], the “Crystalline form, storage time 0 day” value is given as “Form 1”; the “Form stability after having been placed at 50° C. for 1 day” value is reported as “remained unchanged”; the “Crystalline form, storage time 5 days” value is “Remained Form 1”. Moreover, in data set [3] (listed as ozanimod Form 1), the “Crystalline form, storage time 5 days” value is on record as “more stable”. The “Appearance, XRPD and melting point after 4 months storage” value in data set [2] was “remained unchanged”.
For `CC(C)Oc1ccc(-c2nc(-c3cccc4c3CC[C@@H]4NCCO)no2)cc1C#N` [Ozanimod Form 3, 5-[3-[(1S)-2,3-dihydro-1-(2-hydroxyethylamino)-1H-inden-4-yl]-1,2,4-oxadiazol-5-yl]-2-isopropoxybenzonitrile], in data set [4], the “Crystalline form, storage time 5 days” value is “Remained Form 3”; the “Form stability at room temperature and 97% relative humidity for 3 days” value is given as “remained unchanged”. Further, in data set [4] (97% RH), the “Crystalline form, storage time 0 day” value is listed as “Form 3”. The “Form stability after storage at 97% RH for 10 days” value in data set [4] (97% RH, 10 days) is on record as “remained unchanged”.
On to `CC(C)Oc1ccc(-c2nc(-c3cccc4c3CC[C@@H]4NCCO)no2)cc1C#N` [The known ozanimod, 5-[3-[(1S)-2,3-dihydro-1-(2-hydroxyethylamino)-1H-inden-4-yl]-1,2,4-oxadiazol-5-yl]-2-isopropoxybenzonitrile, reference compound], for which the “Crystalline form, storage time 0 day” value in data set [3] and in data set [4] (97% RH) was “Amorphous” each time. Moreover, in data set [3] (setting [5]), the “Form stability after having been placed at 50° C. for 1 day” value is recorded as “showed diffraction peaks”. For the same compound, the “Crystalline form, storage time 5 days” value in data set [3] and in data set [4] was “Weak diffraction” in each case. The “Crystalline form after stirred in water for 3 days” value in data set [1] is on record as “Transformed to Form 2”; in data set [1] (setting [5]), “turned to Form 2”. Besides, the “Form stability at room temperature and 97% relative humidity for 3 days” value in data set [4] (setting [5]) is “turned to Form 3”.
